From US11028127B2, “Peptides capable of reactivating p53 mutants” (Yeda Research and Development Co. Ltd., priority 2013, dated 2021)

What was measured:
[1] = target: T1, Mut-p53 (R175H p53) (Homo sapiens, UniProt P04637, R175H); test: Sandwich ELISA for p53 conformation (PAb1620/PAb240 reactivity); type: biochemical
T1 construct: a hot spot full length mutant p53 Mut-p53 R175H (R175H p53); expressed in transfected cells; host or cells: H1299 (p53-null) cells stably overexpressing R175H p53; cell extract
Method: To measure the conformational effect of the peptides on Mut-p53, a micro-titer plate was coated with either PAb240, PAb1620 or pAb421 (as a positive control and standard for total p53 protein, since the antibody used recognizes both WT and mutant conformations), overnight incubated, washed, blocked, and cell extracts (with or without peptides) were added for an additional 2 hours. After removal of extracts, plates were washed and incubated with the αp53-HRP conjugated Ab for the detection of p53 levels. A TMB (substrate of HRP) assay was performed and optical density was determined at 450 nm. WT p53 served as a positive control for reactivity with PAb1620, and Mut-p53 served as a negative control. The results are presented as the ratio of absorbance between the PAb1620 or PAb240 samples and the control […] sample. MCF7 and H1299-Mut-p53 (ts) A135V (TS) cells were used as positive controls for the WT p53 conformation (1620/240 ratio equals or exceeds 5:1).
96-well plates were coated using 3 different antibodies (1 type of antibody (Ab) in each well): PAb421 recognizes both conformations of p53 and binds to a C-terminus epitope; PAb240 recognizes mutant conformation of p53, binds to epitope within the core domain (amino acids 212-217) (Stephen, C. W. and D. P. Lane, Mutant conformation of p53. Precise epitope mapping using a filamentous phage epitope library. J. Mol. Biol., 1992. 225(3): p. 577-83) which is accessible to the Ab when the protein is partially denatured (for example, when the DBD is mutated); and PAb1620, which recognizes WT conformation of p53, binds to epitope with in the core domain (aa 156, 206-210), formed when folding is in WT conformation (Wang, P. L., F. Salt, and G. Winter, The ‘wild type’ conformation of p53: epitope mapping using hybrid proteins. Oncogene, 2001. 20(18): p. 2318-24).
Wells were incubated overnight (ON) with 100 μl Ab (5 μg/ml) in room temp (RT). The liquid was discarded, and the wells were washed 3 times with Phosphate buffered saline (PBS), 200 μl per each wash. Next, blocking with 200 μl of 5% bovine serum albumin (BSA) diluted in PBS in each well for 1.5 hours at room temperature (RT) was performed. Blocking buffer was discarded, followed by 3 washes in PBS as described above. Samples of mutant and WT p53 proteins (100 μl, 10 μg/ml), together with control peptides pCAP-710 (LPNPPER, SEQ ID NO:328) and pCAP-1220 ([…], SEQ ID NO:368) (5 μg/ml, Sigma Aldrich, or with test peptides 1-153 (5 μg/ml), were incubated for 1.5 hours together, and then added to the wells. Samples were rotated and incubated for 1 hour at RT. Samples were discarded, following 4 washes as described above, using Trisphosphate buffered saline (TPBS). Next, horseradish peroxidase (HRP) conjugated streptavidin p53 antibody (10 μg/ml HAF1355 (R&D)) was added to the wells and incubated at RT for 1 hour. After the plate was washed 3 times in TPBS, TMB substrate solution (50 μl each well, Thermo, (Cat. No. ES001-1L-K)) was added and incubated at 37° c. for 20 min. The reaction was stopped with 2M sulfuric acid (50 μl). The absorbance was measured at 450 nm with a spectrophotometer. Protein concentration was determined by dividing the absorbencies of each sample to the absorbance of Ab 421 samples.
The first screening strategy was based on ELISA. A version of sandwich ELISA was used to examine the effect of the lead test peptides on p53 conformation. To measure the conformational effect of the peptides on Mut-p53, a micro-titer plate was coated with PAb240, PAb1620 or pAb421 (as a positive control), and then the reactivity of p53 to these antibodies was examined. WT p53 served as a positive control for reactivity with PAb1620, and Mut-p53 served as a negative control. To examine the effect of a tested peptide it was added to a solution containing Mut-p53 and change in reactivity to either Ab was tested. […] Several ELISA experiments using different cell extracts were performed. […]

[2] = tested on: Mut-p53-expressing human cancer cell lines; test: Crystal violet viability assay on further cell lines; type: cell-based; settings: cell line not stated
Method: Cells were cultured in 96 wells plates with 2500-4000 cells/well in 0.1 ml and incubated overnight at 37° C. in order to adhere to the plate. Serial dilutions of different peptides (0.5 μg/ml) were added in 0.1 ml aliquots and the plates incubated for additional 48 h at 37° C. Then medium was removed and cell lysis was determined by staining the cells with crystal violet (0.5%) in methanol/water (1:4, v/v), 50 μl each well, for 10 min, followed by 3 washes with PBS. Afterwards, 10% acetic acid (50 μl) was added to each well and shaken for 10 min. Then, automatic plate reading was performed at 595 nm.
An important indication for the reactivating peptides activity is their effect in-vivo on cancer cells that express Mut-p53. In particular, reactivating peptides that can cause specifically Mut-p53-dependent death of cancer cells, with minimal toxic effects on normal cells are desired. A crystal-violet based viability assay, in which crystal-violet is employed to stain cells that adhere to the plate and therefore the amount of dye is proportional to cell number was used to determine the effect of the various test peptides on Mut-p53-dependent death.
Cells were plated in 96-well plates, at calibrated density that allows them to grow for 48 hours without reaching confluence. Peptides are added 6 hours later. […]

With YRRLLIGMMWRRRRRRRRRRR [pCAP-68] the “effect on Mut-p53 conformation (conformational change)” value [1] was “significant shift in Mut-p53 conformation towards PAb1620”, the “reactivity of R175H Mut-p53 towards PAb1620 and PAb240 (conformational change)” value ([1]; extract of H1299 cells overexpressing R175H p53, peptide 50 ng/ml, 2 hours) was “increased reactivity of R175H Mut-p53 towards PAb1620 and decreased reactivity towards PAb240” and the “effect on cell viability” value [2] was “massive cell death”.
